How the values were obtained:
Format in all cases: in vivo
[1] = tested on: large crabgrass (Digitaria sanguinalis); assay: Test A pre-/postemergence plant response
In short: (§1)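 Plants grown from seed in a loam soil and sand mix received test compounds both as a preemergence soil spray and, at the same time, as a postemergence spray at the one- to two-leaf stage. Injury was judged visually against untreated controls roughly ten days later, 0 meaning no effect and 100 complete control.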

[2] = tested on: morningglory (Ipomoea spp.); assay: Test A pre-/postemergence plant response
In short: as §1

[3] = tested on: velvetleaf (Abutilon theophrasti); assay: Test A pre-/postemergence plant response
In short: as §1

[4] = tested on: wheat (Triticum aestivum); assay: Test A pre-/postemergence plant response
In short: as §1

[5] = tested on: cocklebur (Xanthium strumarium); assay: Test B pre-/postemergence plant response; details: for Cocklebur plant response rating (0 to 100 scale): 62 g ai/ha, 0 is no effect, 13 to 15 days
In short: (§2)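 Each species received compound formulated in non-phytotoxic solvent with surfactant, either at planting into a loam and sand blend or as a foliar spray once plants reached 2 to 18 cm in peat-based medium. Plants stayed in the greenhouse 13 to 15 days before visual evaluation against controls, scored 0 (no effect) to 100 (complete control).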

[6] = tested on: downy bromegrass (Bromus tectorum); assay: Test B pre-/postemergence plant response; details: for Bromegrass, Downy plant response rating (0 to 100 scale): 62 g ai/ha, 0 is no effect, 13 to 15 days
In short: as §2

[7] = tested on: giant foxtail (Setaria faberii); assay: Test B pre-/postemergence plant response; details: for Foxtail, Giant plant response rating (0 to 100 scale): 62 g ai/ha, 0 is no effect, 13 to 15 days
In short: as §2

[8] = tested on: goosegrass (Eleusine indica); assay: Test B pre-/postemergence plant response; details: for Goosegrass plant response rating (0 to 100 scale): 62 g ai/ha, 0 is no effect, 13 to 15 days
In short: as §2

[9] = tested on: green foxtail (Setaria viridis); assay: Test B pre-/postemergence plant response; details: for Foxtail, Green plant response rating (0 to 100 scale): 62 g ai/ha, 0 is no effect, 13 to 15 days
In short: as §2

kochia (Kochia scoparia) = assay: Test B pre-/postemergence plant response; details: for Kochia plant response rating (0 to 100 scale): 62 g ai/ha, 0 is no effect, 13 to 15 days
In short: as §2

[10] = tested on: morningglory (Ipomoea coccinea); assay: Test B pre-/postemergence plant response; details: for Morningglory plant response rating (0 to 100 scale): 62 g ai/ha, 0 is no effect, 13 to 15 days
In short: as §2

[11] = tested on: pigweed (Amaranthus retroflexus); assay: Test B pre-/postemergence plant response; details: for Pigweed plant response rating (0 to 100 scale): 62 g ai/ha, 0 is no effect, 13 to 15 days
In short: as §2

[12] = tested on: wheat (Triticum aestivum); assay: Test B pre-/postemergence plant response; details: for Wheat plant response rating (0 to 100 scale): 62 g ai/ha, 0 is no effect, 13 to 15 days
In short: as §2

[13] = Postemergence, 125 g ai/ha, 0 to 100 scale where 0 is no effect and 100 is complete control
[14] = Postemergence, 500 g ai/ha, 0 to 100 scale, 0 = no effect, 100 = complete control, approx. ten days
[15] = Preemergence, 500 g ai/ha, visual injury, 0 to 100 scale (0 no effect, 100 complete control), approx. ten days
[16] = Preemergence, 125 g ai/ha, 0 to 100 scale, 0 = no effect, 100 = complete control
[17] = 31 g ai/ha, postemergence, scale 0 to 100, 0 is no effect, 100 is complete control
[18] = postemergence, 100 is complete control
[19] = Postemergence, 125 g ai/ha, visual rating after 13 to 15 days, scale 0 (no effect) to 100 (complete control)
[20] = Postemergence, 250 g ai/ha, scale 0 to 100 (0 no effect, 100 complete control)

O=C1CCCC(O)=C1C(=O)c1cnc(C2CC2)n(-c2ccccc2)c1=O [Compound 87]
80: Plant response rating, Morningglory [2, 15] | Plant response rating, Bromegrass, Downy [6, 20] | Foxtail, Giant plant response rating (0 to 100 scale) [7, 18] | Goosegrass plant response rating (0 to 100 scale) [8, 18] | Foxtail, Green plant response rating (0 to 100 scale) [9, 18]
65: Plant response rating, Morningglory [10, 20]
75: Plant response rating, Foxtail, Giant [7, 17] | Plant response rating, Goosegrass [8, 17] | Plant response rating, Foxtail, Green [9, 17]
10: Plant response rating, Wheat [4, 16]
35: Plant response rating, Wheat [12, 17] | Wheat plant response rating (0 to 100 scale) [12, 18]
60: Plant response rating, Wheat [4, 14] | Plant response rating, Bromegrass, Downy [6, 19]
20: Plant response rating, Bromegrass, Downy [6, 17]
50: Plant response rating, Morningglory [2, 16] | Bromegrass, Downy plant response rating (0 to 100 scale) [6, 18] | Plant response rating, Wheat [12, 20]
30: Plant response rating, Wheat [4, 13]
95: Plant response rating, Foxtail, Giant [7, 20] | Plant response rating, Foxtail, Green [9, 20]
45: Plant response rating, Morningglory [10, 17] | Morningglory plant response rating (0 to 100 scale) [10, 18]
90: Plant response rating, Crabgrass, Large [1, 13] | Plant response rating, Crabgrass, Large [1, 14] | Plant response rating, Morningglory [2, 13]
100: Plant response rating, Crabgrass, Large [1, 15] | Plant response rating, Morningglory [2, 14] | Plant response rating, Velvetleaf [3, 13] | Plant response rating, Velvetleaf [3, 14] | Plant response rating, Velvetleaf [3, 16] | Plant response rating, Velvetleaf [3, 15] | Cocklebur plant response rating (0 to 100 scale) [5, 18] | Plant response rating, Cocklebur [5, 19] | Plant response rating, Cocklebur [5, 20] | Plant response rating, Kochia (kochia (Kochia scoparia); [17]) | Kochia plant response rating (0 to 100 scale) (kochia (Kochia scoparia); [18]) | Plant response rating, Kochia (kochia (Kochia scoparia); [20]) | Plant response rating, Pigweed [11, 20]
40: Plant response rating, Wheat [4, 15]
98: Plant response rating, Cocklebur [5, 17] | Plant response rating, Goosegrass [8, 20] | Plant response rating, Pigweed [11, 17] | Pigweed plant response rating (0 to 100 scale) [11, 18]

O=C1CCCC(O)=C1C(=O)c1cnc(-c2ccccc2)n(C2CC2)c1=O [Compound 90]
98: Plant response rating, Kochia (kochia (Kochia scoparia); [20]) | Pigweed plant response rating (0 to 100 scale) [11, 18]
35: Plant response rating, Wheat [12, 20]
80: Plant response rating, Crabgrass, Large [1, 13]
90: Plant response rating, Crabgrass, Large [1, 14] | Cocklebur plant response rating (0 to 100 scale) [5, 18] | Plant response rating, Foxtail, Green [9, 20]
75: Plant response rating, Cocklebur [5, 17] | Plant response rating, Goosegrass [8, 20]
0: Plant response rating, Morningglory [2, 16] | Plant response rating, Wheat [4, 13] | Plant response rating, Wheat [4, 16] | Plant response rating, Wheat [4, 15]
95: Morningglory plant response rating (0 to 100 scale) [10, 18]
100: Plant response rating, Crabgrass, Large [1, 15] | Plant response rating, Morningglory [2, 13] | Plant response rating, Morningglory [2, 14] | Plant response rating, Velvetleaf [3, 13] | Plant response rating, Velvetleaf [3, 14] | Plant response rating, Velvetleaf [3, 15] | Plant response rating, Cocklebur [5, 19] | Plant response rating, Cocklebur [5, 20] | Plant response rating, Morningglory [10, 20] | Plant response rating, Pigweed [11, 20]
60: Plant response rating, Crabgrass, Large [1, 16] | Plant response rating, Goosegrass [8, 17] | Goosegrass plant response rating (0 to 100 scale) [8, 18]
40: Plant response rating, Wheat [4, 14]
10: Plant response rating, Bromegrass, Downy [6, 19] | Plant response rating, Bromegrass, Downy [6, 20] | Wheat plant response rating (0 to 100 scale) [12, 18]
85: Plant response rating, Foxtail, Giant [7, 20] | Kochia plant response rating (0 to 100 scale) (kochia (Kochia scoparia); [18]) | Plant response rating, Pigweed [11, 17]
70: Plant response rating, Morningglory [2, 15] | Plant response rating, Velvetleaf [3, 16] | Foxtail, Giant plant response rating (0 to 100 scale) [7, 18]
5: Plant response rating, Bromegrass, Downy [6, 17] | Bromegrass, Downy plant response rating (0 to 100 scale) [6, 18] | Plant response rating, Wheat [12, 17]
65: Plant response rating, Foxtail, Giant [7, 17] | Plant response rating, Foxtail, Green [9, 17] | Foxtail, Green plant response rating (0 to 100 scale) [9, 18] | Plant response rating, Kochia (kochia (Kochia scoparia); [17]) | Plant response rating, Morningglory [10, 17]

COCCOCCn1c(-c2ccccc2)ncc(C(=O)C2=C(O)CCCC2=O)c1=O [Compound 91]
30: Plant response rating, Bromegrass, Downy [6, 20] | Plant response rating, Goosegrass [8, 17]
90: Plant response rating, Crabgrass, Large [1, 13] | Plant response rating, Crabgrass, Large [1, 16] | Morningglory plant response rating (0 to 100 scale) [10, 18]
5: Bromegrass, Downy plant response rating (0 to 100 scale) [6, 18] | Plant response rating, Bromegrass, Downy [6, 19]
70: Plant response rating, Foxtail, Green [9, 17]
100: Plant response rating, Crabgrass, Large [1, 14] | Plant response rating, Crabgrass, Large [1, 15] | Plant response rating, Morningglory [2, 13] | Plant response rating, Morningglory [2, 14] | Plant response rating, Velvetleaf [3, 13] | Plant response rating, Velvetleaf [3, 14] | Plant response rating, Velvetleaf [3, 16] | Plant response rating, Velvetleaf [3, 15] | Plant response rating, Pigweed [11, 17] | Pigweed plant response rating (0 to 100 scale) [11, 18] | Plant response rating, Pigweed [11, 20]
10: Wheat plant response rating (0 to 100 scale) [12, 18]
80: Plant response rating, Morningglory [2, 15] | Kochia plant response rating (0 to 100 scale) (kochia (Kochia scoparia); [18])
0: Plant response rating, Wheat [4, 13] | Plant response rating, Wheat [4, 16] | Plant response rating, Bromegrass, Downy [6, 17] | Plant response rating, Wheat [12, 17]
98: Foxtail, Giant plant response rating (0 to 100 scale) [7, 18] | Plant response rating, Foxtail, Giant [7, 20] | Plant response rating, Foxtail, Green [9, 20] | Plant response rating, Morningglory [10, 20]
75: Goosegrass plant response rating (0 to 100 scale) [8, 18] | Plant response rating, Morningglory [10, 17]
20: Plant response rating, Morningglory [2, 16] | Plant response rating, Wheat [4, 15] | Plant response rating, Cocklebur [5, 17] | Plant response rating, Kochia (kochia (Kochia scoparia); [17])
65: Cocklebur plant response rating (0 to 100 scale) [5, 18]
50: Plant response rating, Wheat [4, 14] | Plant response rating, Wheat [12, 20]
85: Plant response rating, Foxtail, Giant [7, 17] | Plant response rating, Goosegrass [8, 20] | Foxtail, Green plant response rating (0 to 100 scale) [9, 18]
95: Plant response rating, Cocklebur [5, 19] | Plant response rating, Cocklebur [5, 20] | Plant response rating, Kochia (kochia (Kochia scoparia); [20])

O=C1CCCC(O)=C1C(=O)c1cnc(C2CCCC2)n(-c2ccccc2)c1=O [Compound 92]
70: Goosegrass plant response rating (0 to 100 scale) [8, 18]
60: Plant response rating, Goosegrass [8, 17]
0: Plant response rating, Morningglory [2, 16] | Plant response rating, Wheat [4, 13] | Plant response rating, Wheat [4, 14] | Plant response rating, Wheat [4, 16] | Plant response rating, Wheat [4, 15] | Plant response rating, Bromegrass, Downy [6, 17] | Plant response rating, Wheat [12, 17] | Wheat plant response rating (0 to 100 scale) [12, 18] | Plant response rating, Wheat [12, 20]
95: Morningglory plant response rating (0 to 100 scale) [10, 18]
25: Plant response rating, Cocklebur [5, 17]
75: Foxtail, Giant plant response rating (0 to 100 scale) [7, 18] | Plant response rating, Foxtail, Green [9, 17] | Plant response rating, Kochia (kochia (Kochia scoparia); [17])
98: Plant response rating, Cocklebur [5, 19] | Plant response rating, Cocklebur [5, 20] | Plant response rating, Foxtail, Giant [7, 20] | Plant response rating, Foxtail, Green [9, 20]
90: Plant response rating, Crabgrass, Large [1, 13] | Plant response rating, Crabgrass, Large [1, 14] | Plant response rating, Crabgrass, Large [1, 16] | Plant response rating, Velvetleaf [3, 16] | Plant response rating, Goosegrass [8, 20] | Kochia plant response rating (0 to 100 scale) (kochia (Kochia scoparia); [18]) | Plant response rating, Pigweed [11, 17]
5: Bromegrass, Downy plant response rating (0 to 100 scale) [6, 18]
100: Plant response rating, Crabgrass, Large [1, 15] | Plant response rating, Morningglory [2, 13] | Plant response rating, Morningglory [2, 14] | Plant response rating, Velvetleaf [3, 13] | Plant response rating, Velvetleaf [3, 14] | Plant response rating, Velvetleaf [3, 15] | Plant response rating, Kochia (kochia (Kochia scoparia); [20]) | Plant response rating, Morningglory [10, 20] | Pigweed plant response rating (0 to 100 scale) [11, 18] | Plant response rating, Pigweed [11, 20]
80: Plant response rating, Morningglory [2, 15] | Cocklebur plant response rating (0 to 100 scale) [5, 18] | Foxtail, Green plant response rating (0 to 100 scale) [9, 18] | Plant response rating, Morningglory [10, 17]
65: Plant response rating, Foxtail, Giant [7, 17]
20: Plant response rating, Bromegrass, Downy [6, 19] | Plant response rating, Bromegrass, Downy [6, 20]

Reference: US8952024B2, “Herbicidal pyrimidone derivatives” (E I du Pont de Nemours and Company, priority 2009, dated 2015)
